From patent publication US20210395327A1, “Growth Hormone-Releasing Hormone Antagonists and Uses Thereof” (United States Government As Represented By The Department …, priority 2019, published 2021)
Non-standard residues stand in square brackets, D forms with d. Residues, ends and D or L forms follow the SMILES beside them. *: point of attachment. Phenylacetyl(2,3,4,5,6-F5) = O=C(Cc1c(F)c(F)c(F)c(F)c1F)*; Phe(F5) = N[C@@H](Cc1c(F)c(F)c(F)c(F)c1F)C(=O)O; Phe(4-Cl) = N[C@@H](Cc1ccc(Cl)cc1)C(=O)O; hArg = N=C(N)NCCCC[C@H](N)C(=O)O; 12Ado = NCCCCCCCCCCCC(=O)O; Nle = CCCC[C@H](N)C(=O)O; Orn = NCCC[C@H](N)C(=O)O; Abu = CC[C@H](N)C(=O)O; PhAc = O=C(Cc1ccccc1)*

How the values were obtained:
[1] = system: prostate cancer PC3 xenograft; experiment: Xenograft tumor growth in nude mice, PC3; type: in vivo; details: Table 4N, Prostate Ca PC3, 8 weeks, 5 μg/day s.c.; for % Inhibition: vs control
Method: (§1) The peptides' activity was compared with GHRH antagonist MIA-602. All statistical analyzses were performed from comparing GHRA antagonists to non-treated tumor (control).
(§2) Peptides and chemicals. GHRH antagonists MIA-602 and AVR-GHRH antagonists (see Table 2 above) were synthesized by solid phase methods and purified by HPLC. The peptides were dissolved in DMSO and further diluted in 10% 1,2-propanediol. The final concentration of peptides was 50 µg/ml in 10% 1,2-propanediol containing 0.1% of DMSO.
(§3) Cell culture. Human cancer cell lines including pancreatic (PANC-1 and CFPAC-1), lung (HCC827 and H460), stomach (NCI-N87), prostate (PC3), brest (MX-1 and HCC-1806), colorectal (HT-29), and ovarian (SK-OV-3 and OVCAR-3) were obtained from the American Type Culture Collection (ATCC) and cultured at 37° C. in a humidified 95% air/5% CO2 atmosphere in the medium recommended by ATCC.
(§4) Xenograft models of human cancers in nude mice. Female athymic (NCr nu/nu) nude mice, 5- to 6-weeks-old, obtained from the Envigo labs (Tampa, Fla.), were housed in laminar airflow cabinets under pathogen-free conditions with a 12-h light/12-h dark schedule, and were fed autoclaved standard chow and water. To generate mice with xenografted tumors, tumor xenografts were initiated by subcutaneous (s.c.) injection of 107 human cancer cells into female nude mice. After about 4 weeks the resulting tumors were dissected and collected after removing necrosis tissues. The tumors were then cut into particles with size of 3 mm3 and transplanted s.c. by trocar needle into experimental animals. When tumors grew to the size of 50-60 mm3 (by volume), mice were randomized into groups and treated daily for 4-8 weeks by subcutaneous administration of 5 μg of GHRH antagonists MIA-602 or AVR-compounds (2-10 μg as indicated), or vehicle solutions (0.1% DMSO in 10% 1,2-propanediol) respectively. Tumor sizes were measured weekly.
(§5) Statistical analysis. One-way ANOVA followed by Bonferroni comparison were performed. Data are expressed as Mean±SEM. To determine statistical significance between animal groups, two-tailed Student's t-test was conducted. Differences were considered significant when p<0.05.
(§6) Results. […] FIG. 1A-N represents in vivo inhibition of tumor growth during the treatment with GHRH antagonist MIA-602 and selected AVR antagonists in nude mice xenografted with various human tumors including pancreatic cancer PANC-1 (FIG. 1A) and CFPAC-1 (FIG. 1I); lung cancer HCC827 (FIGS. 1B, C) and H460 (FIG. 1H); stomach cancer N87 (FIGS. 1D-F); colon cancer HT-29 (FIG. 1G); breast cancer MX-1 and HCC-1806 (FIGS. 1J, K); ovarian cancer SK-OV-3 and OVACAR-3 (FIGS. 1 L, M) and prostate cancer PC3 (FIG. 1N). See also Table 5.

[2] = system: colon cancer HT-29 xenograft; experiment: Xenograft tumor growth in nude mice, HT-29; type: in vivo; details: Table 4G, Colon Ca HT-29, 6 weeks; for % Inhibition: vs control
Method: as §1, §2, §3, §4, §5, §6

[3] = system: ovarian cancer OVCAR-3 xenograft; experiment: Xenograft tumor growth in nude mice, OVCAR-3; type: in vivo; details: Table 4M, Ovarian Ca OVCAR-3, 9 weeks; for % Inhibition: vs control
Method: as §1, §2, §3, §4, §5, §6

[4] = system: OVCAR-3 ovarian cancer cells; experiment: In vitro cell viability, OVCAR-3; type: cell-based, human; details: Table 3B; * at 2 μM for 72 H; MIA-602 = 1
Method: The inhibitory effects of the various synthesized GHRH antagonists were tested in cell proliferation assays in various human cancer cell lines including stomach cancer (KATOIII, N87), colon cancer (HT-29), urothelial cancer (J82, RT4), pancreatic cancer (PANC-1, CFPAC-1), prostatic cancer (PC3), breast cancer (MX-1, HCC1806), ovarian cancer (SK-OV-3, OVCAR-3) and lung cancer (HCC827, H460).
as §3, with “(NCI-N87 and KATOIII), urothelial (J82, RT4), prostatic” for “(NCI-N87), prostate”, “breast” for “brest”, “HCC 1806),” for “HCC-1806),”
In vitro cell viability. Cell viability was analyzed as follows: cancer cells including pancreatic (PANC-1 and CFPAC-1), lung (HCC827 and H460), stomach (NCI-N87 and KATOIII), urothelial (J82, RT4), prostatic (PC3) and breast (MX-1 and HCC 1806), colorectal (HT-29) and ovarian (SK-OV-3 and OVCAR-3) were grown on 96 well plates to ˜60% confluence, the cells were starved for 24 h in culture medium containing 0.5% FBS. Cells were then treated with GHRH antagonists MIA602 AVR compounds at concentrations of 1, 2.5 or 5 μM, or vehicle (0.1% DMSO) in quintuplicates for 72 hours. The medium was replaced every 48 hours. Cell viability was measured using CellTiter 96 aqueous one solution kit (Promega). Inhibitory effects of tested AVR compounds in comparison to that of MIA602 are presented as inhibitory potency.
Inhibitory effects of selected AVR compounds in comparison to that of MIA602 are presented as inhibitory potency (e.g., percentage of inhibition). […] The cell lines tested including lung cancer HCC827 (FIG. 2A), pancreatic cancer CFPAC-1 (FIG. 2B), stomach cancer N87 (FIG. 2C), colon cancer HT-29 (FIG. 2D), breast cancers MX-1 and HCC1806 (FIGS. 2 E, F). […]

[5] = system: KATOIII stomach cancer cells; experiment: In vitro cell viability, KATOIII; type: cell-based, human; details: antagonist 5 μM for 72 h, cell proliferation assay; MIA602 = 1
In short: (§7)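 Cells grown to ~60% confluence, serum-starved 24 h in 0.5% FBS, then treated with antagonists at 1, 2.5 or 5 μM or vehicle (0.1% DMSO) in quintuplicate for 72 h, medium replaced every 48 h. Viability read by MTS-type CellTiter 96 AQueous One assay; expressed as inhibitory potency relative to MIA602.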

[6] = system: PANC-1 pancreatic cancer cells; experiment: In vitro cell viability, PANC-1; type: cell-based, human; details: antagonist 5 μM for 72 h, cell proliferation assay; MIA602 = 1
In short: as §7

[7] = system: J82 urothelial cancer cells; experiment: In vitro cell viability, J82; type: cell-based, human; details: antagonist 5 μM for 72 h, cell proliferation assay; MIA602 = 1
In short: as §7

Compound | Tumor Size (mm3) [1] | % Inhibition [1] | Tumor Size (mm^3) ([2]; 2 μg/day s.c.) | % Inhibition ([2]; 2 μg/day s.c.) | Tumor Size (mm^3) ([2]; 5 μg/day s.c.) | % Inhibition ([2]; 5 μg/day s.c.) | Tumor Size (mm3) ([3]; 2.5 μg/day s.c.) | % Inhibition ([3]; 2.5 μg/day s.c.) | Tumor Size (mm3) ([3]; 5 μg/day s.c.) | % Inhibition ([3]; 5 μg/day s.c.) | In vitro relative inhibitory potency in comparison to MIA-602, OVCAR-3 [4] | relative inhibitory potency in comparison to MIA-602, Stomach KATOIII [5] | relative inhibitory potency in comparison to MIA-602, Pancreatic Panc-1 [6] | relative inhibitory potency in comparison to MIA-602, Urothelial J82 [7]
CCCC[C@H](NC(=O)[C@@H](NC(=O)[C@H](CC(=O)O)NC(=O)[C@H](CCC(N)=O)NC(=O)[C@H](CC(C)C)NC(=O)[C@H](CC(C)C)NC(=O)[C@H](CCCCN)NC(=O)[C@H](CCCNC(=N)N)NC(=O)[C@H](C)NC(=O)[C@H](CO)NC(=O)[C@H](CC(C)C)NC(=O)[C@H](CCC(N)=O)NC(=O)[C@H](CC)NC(=O)[C@H](CC(C)C)NC(=O)[C@@H](NC(=O)[C@H](CCCCN)NC(=O)[C@H](CCCNC(=N)N)NC(=O)[C@H](Cc1c(F)c(F)c(F)c(F)c1F)NC(=O)[C@H](CCCCNC(=N)N)NC(=O)[C@H](C)NC(=O)[C@@H](NC(=O)[C@H](Cc1ccc(Cl)cc1)NC(=O)[C@@H](NC(=O)[C@H](C)NC(=O)[C@H](CC(=O)O)NC(=O)[C@@H](CCCNC(=N)N)NC(=O)[C@H](Cc1ccc(O)cc1)NC(=O)CCCCCCCCCCCNC(=O)Cc1c(F)c(F)c(F)c(F)c1F)[C@@H](C)CC)[C@@H](C)O)C(C)C)[C@@H](C)CC)C(=O)N[C@H](CCCNC(=N)N)C(=O)N[C@@H](CCCCNC(=N)N)C(=O)NCCCCCCCCCCCC(N)=O [AVR-353, 5FPhAC-Ada-Tyr-DArg-Asp-Ala-Ile-Cpa-Thr-Ala-Har-5FPhe-Arg-Lys-Val-Leu-Abu-Gln-Leu-Ser-Ala-Arg-Lys-Leu-Leu-Gln-Asp-Ile-Nle-DArg-Har-Ada-NH2] ({Phenylacetyl(2,3,4,5,6-F5)-12Ado}-Y[dR]DAI[Phe(4-Cl)]TA[hArg][Phe(F5)]RKVL[Abu]QLSARKLLQDI[Nle][dR][hArg][12Ado]-NH2) | 496.7 mm3 | 39.9% | 549.30 mm^3 | 24.2% | 494.70 mm^3 | 31.8% | 357.0 mm3 | 25.7% | 255.2 mm3 | 46.9% | 1.55* |  |  | 
CCCC[C@H](NC(=O)[C@@H](NC(=O)[C@H](CC(=O)O)NC(=O)[C@H](CCC(N)=O)NC(=O)[C@H](CC(C)C)NC(=O)[C@H](CC(C)C)NC(=O)[C@H](CCCN)NC(=O)[C@H](Cc1c[nH]cn1)NC(=O)[C@H](C)NC(=O)[C@H](CO)NC(=O)[C@H](CC(C)C)NC(=O)[C@H](CCC(N)=O)NC(=O)[C@H](CC)NC(=O)[C@H](CC(C)C)NC(=O)[C@@H](NC(=O)[C@H](CCCN)NC(=O)[C@H](Cc1c[nH]cn1)NC(=O)[C@H](Cc1ccc(OC)cc1)NC(=O)[C@H](CCCCNC(=N)N)NC(=O)[C@H](C)NC(=O)[C@@H](NC(=O)[C@H](Cc1c(F)c(F)c(F)c(F)c1F)NC(=O)[C@@H](NC(=O)[C@H](C)NC(=O)[C@H](CC(=O)O)NC(=O)[C@@H](CCCNC(=N)N)NC(=O)[C@H](Cc1ccc(O)cc1)NC(=O)CCCCCCCCCCCNC(=O)Cc1ccccc1)[C@@H](C)CC)[C@@H](C)O)C(C)C)[C@@H](C)CC)C(=O)N[C@H](CCCNC(=N)N)C(=O)N[C@@H](CCCCNC(=N)N)C(N)=O [MIA-602, PhAC-Ada, Tyr D-Arg, Asp, Ala, Ile, 5FPhe, Thr, Ala, Har, Tyr(Me), His, Orn, Val, Leu, Abu, Gin, Leu, Ser, Ala, His, Om, Leu, Leu, Gin, Asp, Ile; Nle, D-Arg, Har NH2, reference compound] ({PhAc-12Ado}-Y[dR]DAI[Phe(F5)]TA[hArg]Y(Me)H[Orn]VL[Abu]QLSAH[Orn]LLQDI[Nle][dR][hArg]-NH2) | 450.9 mm3 | 45.5% |  |  | 582.10 mm^3 | 16.5% |  |  | 267.2 mm3 | 44.4% | 1 | 1 | 1 | 1
